# Laboratory results from US8392127B2, “Methods and gene expression signature for assessing growth factor signaling pathway regulation status” (Merck Sharp & Dohme Corp., priority 2008, dated 2013).
# “Also recorded” adds a separate entry of the source. Read-outs that look alike come from different tables or passages of the source.
# Experiments:
# [1] = system: growth factor signaling pathway signature in EBC-1 xenografts; experiment: Growth factor signaling pathway signature score in EBC-1 xenografts (microarray); format: in vivo, HRLN female nu/nu mice; conditions: 112 mpk PO BID for 7 days; tumors harvested 2 hours after the final dose
# Method: (§1) HRLN female nu/nu mice were subcutaneously implanted with 5×10^6 EBC-1 tumor cells. Tumors were allowed to grow an average size of 450-500 mg before treatment was administered. Xenografts were treated with vehicle or 11, 34, or 112 mpk of MK-2461 (n=4 for each treatment group). […] Treatment was administered PO BID for 7 days. Tumors were harvested 2 hours after the final dose, as this was the estimated time to achieve Cmax.
# RNA was harvested from both vehicle-treated and compound-treated samples. Regulation of the growth factor signaling pathway signature by MK-2461 was assessed by comparing gene expression profiles of MK-2461 treated samples to the mean gene expression profile of the 4 vehicle treated samples. The log(10) ratio of expression in the MK-2461 treated samples relative to the mean of the vehicle treated samples was calculated for every probe on the microarray. The growth factor signaling pathway signature score was calculated as the mean log(10) ratio of the genes in the “up” arm of the signature (see Table 5a) minus the mean log(10) ratio of the genes in the “down” arm of the signature (see Table 5b).
# [2] = system: HT29; experiment: Sensitivity to cell killing by cMET inhibitor MK-2461; format: cell-based
# [3] = system: EBC-1; experiment: as above; format: cell-based
# [4] = system: HCT15 (or AGS); experiment: as above; format: cell-based
# [5] = system: growth factor signaling pathway signature in GTL-16; experiment: Growth factor signaling pathway signature score after MK-2461 in cell lines (microarray); format: cell-based; conditions: 1 μM, 6 and 12 hours post-treatment
# Method: (§2) Ten cell lines with alternations of the PI3K/MAPK pathway components were identified (see Table 6), including two cell lines with amplification of cMET (EBC-1 and GTL-16). […] To assess the regulation of the growth factor signaling pathway signature in these cells, these cell lines were treated with vehicle or 1 μM MK-2461. The cell lines were profiled at 6 and 12 hours post-treatment. Duplicate cultures were seeded in 6-well plates for each treatment group. Cell were ˜70% confluent at time of collection. Experiments were performed in duplicate.
# (§3) RNA was harvested from both vehicle-treated and compound treated cells, and regulation of the growth factor signaling pathway by MK-2461 was assessed by comparing gene expression profiles of MK-2461 treated cells to vehicle treated cells. For every probe on the microarray, the log(10) ratio of expression in the MK-2461 treated samples relative to the cell line-matched vehicle treated samples was calculated. The growth factor signaling pathway signature score was calculated as the mean log(10) ratio of the genes in the “up” arm of the signature (see Table 5a) minus the mean log(10) ratio of the genes in the “down” arm of the signature (see Table 5b).
# [6] = system: growth factor signaling pathway signature in EBC-1; experiment: as above; format: cell-based; conditions: 1 μM, 6 and 12 hours post-treatment
# Method: as §2, §3
# [7] = system: HCT116; experiment: Sensitivity to cell killing by cMET inhibitor MK-2461; format: cell-based
# [8] = system: Colo205; experiment: as above; format: cell-based
# [9] = system: A549; experiment: as above; format: cell-based
# [10] = system: GTL-16; experiment: as above; format: cell-based
# [11] = system: EBC-1 tumor cells; experiment: EBC-1 xenograft tumor growth; format: in vivo, HRLN female nu/nu mice
# Method: as §1
compound,measurement,setting,value
"CN(C[C@@H]1COCCO1)S(=O)(=O)Nc1ccc2ccc3ncc(-c4cnn(C)c4)cc3c(=O)c2c1 [MK-2461, N-[(2R)-1,4-dioxan-2-ylmethyl]-N-methyl-N′-[3-(1-methyl-1H-pyrazol-4-yl)-5-oxo-5H-benzo[4,5]cyclohepta[1,2-b]pyridin-7-yl]sulfamide]",inhibition of the growth factor signaling pathway signature in xenografts,[1],Inhibition of the growth factor signaling pathway signature was only observed
same,sensitive to MK2461,[2],no
same,sensitive to MK2461,[3],sensitive to cell killing
same,sensitive to MK2461,[3]; listed as MK2461,✓
same,sensitive to MK2461,[4],no
same,inhibition of the growth factor signaling pathway signature,[5],Inhibition of the growth factor signaling pathway signature was observed; also recorded: inhibition of the growth factor signaling pathway was only observed
same,inhibition of the growth factor signaling pathway signature,[6],Inhibition of the growth factor signaling pathway signature was observed; also recorded: inhibition of the growth factor signaling pathway was only observed
same,sensitive to MK2461,[7],no
same,sensitive to MK2461,[8],no
same,sensitive to MK2461,[9],no
same,sensitive to MK2461,[10],sensitive to cell killing
same,sensitive to MK2461,[10]; listed as MK2461,✓
same,effect on tumor growth,[11]; 11 mpk PO BID,no effect on tumor growth
same,effect on tumor growth,[11]; 34 mpk PO BID,no effect on tumor growth
same,efficacy in xenografts,[11]; 112 mpk,only dose that resulted in efficacy
same,tumor growth inhibition compared to vehicle treatment,[11]; 112 mpk PO BID,approximately 30%
